From US8546414B2, “Ion channel modulators and methods of use” (Vertex Pharmaceuticals Incorporated, priority 2004, dated 2013)

Columns and labels:
Format in all cases: cell-based
[1] = biological target: T1, CaV2.2 (Homo sapiens, UniProt Q00975); test: VIPR optical membrane potential assay with electrical stimulation, CaV2.2; conditions: Table 9, CaV 2.2 receptors
T1 construct: expressed in transfected cells; host or cells: HEK293
How it was run: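 HEK293 cells stably expressing CaV2.2 stained with CC2-DMPE/DiSBAC2(3) voltage-sensitive dyes (10 μM final CC2-DMPE, 30 min, RT), then compound added and cells electrically stimulated for 3-5 s. Read-out: background-subtracted 460/580 nm emission ratio; response R=Rf/Ri (post- vs pre-stimulus ratio); antagonism seen as reduced response.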

[2] = biological target: T2, NaV1.3 (Homo sapiens, UniProt Q9NY46); test: VIPR optical membrane potential assay with electrical stimulation, NaV1.3; conditions: Table 9, NaV 1.3 receptors
T2 construct: expressed in transfected cells; host or cells: HEK293
How it was run: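 HEK293 cells stably expressing NaV1.3, stained with CC2-DMPE (10 μM final) then DiSBAC2(3) with ABSC1, 30 min each at RT; compounds added with oxonol. Electrical stimulation for 3 s; 460/580 nm background-subtracted emission ratio Rf/Ri, normalised to tetracaine (positive) and untreated (negative) controls.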

[3] = biological target: NaV1.8 (Homo sapiens, UniProt Q9Y5Y9); test: VIPR optical membrane potential assay, NaV1.8 (other subtypes in an analogous mode); conditions: Table 9, NaV 1.8 receptors
Method: Antagonist properties of test compounds were assessed as follows. Cells expressing the NaV of interest were placed into microtiter plates. After an incubation period, the cells were stained with fluorescent dyes sensitive to the transmembrane potential. The test compounds were added to the microtiter plate. The cells were stimulated with either chemical or electrical means to evoke a NaV dependent membrane potential change from unblocked channels, which was detected and measured with trans-membrane potential-sensitive dyes. Antagonists were detected as a decreased membrane potential response to the stimulus.
24 hours before the assay on VIPR, CHO cells endogenously expressing a NaV 1.2 type voltage-gated NaV are seeded in 96-well poly-lysine coated plates at 60,000 cells per well. […] Plates are incubated in the dark for 30 minutes at room temperature. • 4) While the cells are being stained with coumarin, a […] oxonol solution in BS#2 is prepared. […] As before, the residual volume should be 40 μL. • 6) Upon removing the bath, the cells are loaded with 80 μL of the DiSBAC2(3) solution, after which test compound, dissolved in DMSO, is added to achieve the desired test concentration to each well from the drug addition plate and mixed thoroughly. The volume in the well should be roughly 121 μL. The cells are then incubated for 20-30 minutes. • 7) Once the incubation is complete, the cells are ready to be assayed on VIPR® with a sodium addback protocol. 120 μL of Bath solution #1 is added to stimulate the NaV dependent depolarization. […] tetracaine was used as an antagonist positive control for block of the NaV channel. Analysis of VIPR® Data:
The following is an example of how NaV1.3 inhibition activity is measured using the optical membrane potential method#2. Other subtypes are performed in an analogous mode in a cell line expressing the NaV of interest.

T2 sequence (Q9NY46 whole entry): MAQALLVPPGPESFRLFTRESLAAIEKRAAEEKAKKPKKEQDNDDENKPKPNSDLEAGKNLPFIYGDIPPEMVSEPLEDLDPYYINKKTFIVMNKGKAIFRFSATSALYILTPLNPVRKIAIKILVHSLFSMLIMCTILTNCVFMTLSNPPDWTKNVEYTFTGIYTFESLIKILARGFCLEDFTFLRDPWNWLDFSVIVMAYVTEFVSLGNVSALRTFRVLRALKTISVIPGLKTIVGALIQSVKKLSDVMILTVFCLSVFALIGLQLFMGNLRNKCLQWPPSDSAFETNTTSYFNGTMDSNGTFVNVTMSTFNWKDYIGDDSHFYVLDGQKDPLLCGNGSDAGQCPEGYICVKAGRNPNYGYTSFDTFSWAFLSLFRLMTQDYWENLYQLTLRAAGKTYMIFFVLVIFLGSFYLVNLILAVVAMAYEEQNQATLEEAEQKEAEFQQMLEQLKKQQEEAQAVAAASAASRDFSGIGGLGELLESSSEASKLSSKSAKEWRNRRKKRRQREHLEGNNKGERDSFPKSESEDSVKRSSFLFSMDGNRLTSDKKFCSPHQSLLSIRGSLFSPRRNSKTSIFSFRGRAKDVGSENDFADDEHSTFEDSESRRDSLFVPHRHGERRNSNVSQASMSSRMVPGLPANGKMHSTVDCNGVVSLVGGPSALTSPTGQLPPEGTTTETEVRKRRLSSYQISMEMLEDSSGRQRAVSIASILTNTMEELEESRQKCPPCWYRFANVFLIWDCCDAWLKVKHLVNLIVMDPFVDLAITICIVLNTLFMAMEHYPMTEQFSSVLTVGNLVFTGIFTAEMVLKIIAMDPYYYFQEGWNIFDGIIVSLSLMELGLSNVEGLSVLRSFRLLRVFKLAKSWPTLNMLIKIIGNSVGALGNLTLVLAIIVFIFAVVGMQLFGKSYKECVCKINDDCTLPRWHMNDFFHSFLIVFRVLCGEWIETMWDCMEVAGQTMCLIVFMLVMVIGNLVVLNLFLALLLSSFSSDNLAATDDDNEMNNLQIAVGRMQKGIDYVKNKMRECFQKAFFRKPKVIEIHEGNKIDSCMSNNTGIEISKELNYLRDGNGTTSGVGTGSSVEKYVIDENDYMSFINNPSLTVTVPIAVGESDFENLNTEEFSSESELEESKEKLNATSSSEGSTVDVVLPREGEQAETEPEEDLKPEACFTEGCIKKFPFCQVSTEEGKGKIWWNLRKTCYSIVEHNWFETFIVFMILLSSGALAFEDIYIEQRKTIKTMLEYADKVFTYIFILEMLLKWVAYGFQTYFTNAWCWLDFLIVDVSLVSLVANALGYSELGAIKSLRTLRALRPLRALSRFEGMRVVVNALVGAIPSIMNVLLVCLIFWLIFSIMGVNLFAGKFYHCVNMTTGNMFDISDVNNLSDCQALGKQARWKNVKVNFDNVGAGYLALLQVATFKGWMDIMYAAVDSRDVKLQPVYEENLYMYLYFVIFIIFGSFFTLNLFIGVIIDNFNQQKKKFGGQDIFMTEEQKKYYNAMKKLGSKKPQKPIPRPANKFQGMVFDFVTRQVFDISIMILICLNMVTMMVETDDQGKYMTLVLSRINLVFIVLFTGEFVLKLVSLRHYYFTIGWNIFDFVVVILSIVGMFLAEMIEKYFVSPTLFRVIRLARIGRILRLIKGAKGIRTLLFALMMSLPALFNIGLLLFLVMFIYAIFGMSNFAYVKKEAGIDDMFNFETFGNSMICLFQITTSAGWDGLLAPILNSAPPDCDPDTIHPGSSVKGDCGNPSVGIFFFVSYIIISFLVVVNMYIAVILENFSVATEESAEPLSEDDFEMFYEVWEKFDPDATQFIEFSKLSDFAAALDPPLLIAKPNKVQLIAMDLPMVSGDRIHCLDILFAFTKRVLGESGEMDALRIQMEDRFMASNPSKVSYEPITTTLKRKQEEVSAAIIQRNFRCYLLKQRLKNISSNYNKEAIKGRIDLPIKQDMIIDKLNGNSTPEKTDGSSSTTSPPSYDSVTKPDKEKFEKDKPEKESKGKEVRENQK
NaV1.8, sequence (Q9Y5Y9 whole entry): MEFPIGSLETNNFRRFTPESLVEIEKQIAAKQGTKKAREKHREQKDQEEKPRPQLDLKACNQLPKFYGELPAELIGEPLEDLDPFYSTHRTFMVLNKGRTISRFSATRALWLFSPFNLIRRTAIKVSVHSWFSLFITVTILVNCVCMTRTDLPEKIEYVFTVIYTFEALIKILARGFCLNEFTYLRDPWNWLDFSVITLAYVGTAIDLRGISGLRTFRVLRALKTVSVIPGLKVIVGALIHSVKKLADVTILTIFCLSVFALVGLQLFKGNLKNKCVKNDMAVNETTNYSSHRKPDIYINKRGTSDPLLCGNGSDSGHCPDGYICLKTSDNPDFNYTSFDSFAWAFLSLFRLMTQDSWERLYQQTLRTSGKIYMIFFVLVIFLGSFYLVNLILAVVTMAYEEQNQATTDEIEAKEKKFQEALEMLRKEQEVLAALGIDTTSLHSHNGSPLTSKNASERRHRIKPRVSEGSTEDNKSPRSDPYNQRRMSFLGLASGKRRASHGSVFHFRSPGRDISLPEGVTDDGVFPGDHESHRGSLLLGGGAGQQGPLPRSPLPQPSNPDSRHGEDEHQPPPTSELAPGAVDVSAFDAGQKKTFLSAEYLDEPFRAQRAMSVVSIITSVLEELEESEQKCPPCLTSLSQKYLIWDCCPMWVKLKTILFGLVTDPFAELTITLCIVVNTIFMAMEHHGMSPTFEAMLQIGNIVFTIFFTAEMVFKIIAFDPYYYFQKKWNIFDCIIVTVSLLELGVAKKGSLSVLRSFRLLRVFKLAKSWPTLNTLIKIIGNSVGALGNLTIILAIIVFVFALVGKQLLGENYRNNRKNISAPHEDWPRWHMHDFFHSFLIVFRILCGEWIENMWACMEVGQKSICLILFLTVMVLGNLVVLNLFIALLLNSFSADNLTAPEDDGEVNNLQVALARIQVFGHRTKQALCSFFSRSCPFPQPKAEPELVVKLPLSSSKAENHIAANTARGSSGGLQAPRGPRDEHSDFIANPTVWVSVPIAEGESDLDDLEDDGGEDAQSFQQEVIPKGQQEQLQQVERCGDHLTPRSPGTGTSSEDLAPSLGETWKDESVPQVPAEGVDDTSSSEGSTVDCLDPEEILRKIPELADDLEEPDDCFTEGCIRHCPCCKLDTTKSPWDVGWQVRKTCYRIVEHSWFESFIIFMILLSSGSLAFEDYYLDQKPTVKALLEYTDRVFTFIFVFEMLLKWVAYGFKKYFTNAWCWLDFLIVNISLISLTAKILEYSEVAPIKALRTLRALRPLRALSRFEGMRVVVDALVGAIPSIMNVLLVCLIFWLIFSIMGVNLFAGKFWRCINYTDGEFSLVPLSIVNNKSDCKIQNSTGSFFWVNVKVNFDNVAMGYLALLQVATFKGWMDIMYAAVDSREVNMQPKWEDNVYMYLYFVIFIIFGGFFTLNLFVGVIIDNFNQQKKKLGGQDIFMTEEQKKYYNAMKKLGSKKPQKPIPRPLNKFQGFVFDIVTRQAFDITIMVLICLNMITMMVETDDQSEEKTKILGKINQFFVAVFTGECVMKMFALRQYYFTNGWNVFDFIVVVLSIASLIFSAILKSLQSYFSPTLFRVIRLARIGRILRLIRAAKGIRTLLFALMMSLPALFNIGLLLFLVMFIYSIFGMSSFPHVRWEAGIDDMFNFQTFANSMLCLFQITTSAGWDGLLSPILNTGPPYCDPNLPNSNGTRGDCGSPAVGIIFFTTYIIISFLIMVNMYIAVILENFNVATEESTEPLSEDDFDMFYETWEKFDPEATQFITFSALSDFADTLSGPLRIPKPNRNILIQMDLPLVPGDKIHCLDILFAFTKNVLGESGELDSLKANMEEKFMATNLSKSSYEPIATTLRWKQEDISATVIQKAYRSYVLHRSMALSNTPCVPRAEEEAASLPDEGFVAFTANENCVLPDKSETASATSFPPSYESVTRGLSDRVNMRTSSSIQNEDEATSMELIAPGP

| Structure (SMILES) | IC50 [1] | IC50 [2] | IC50 [3] |
| --- | --- | --- | --- |
| CN1CCN(c2ncc(C(=O)N(Cc3ccccc3)C3CC3)c(-c3ccccc3F)n2)CC1 [compound 129] | > 10 µM | > 10 µM | > 10 µM |
| CC(C)N(Cc1ccccc1)C(=O)c1cnc(N2CCC(O)C2)nc1-c1ccccc1F (stereo not drawn) [compound 45] | > 10 µM | > 10 µM | > 10 µM |
| CC(C)N(Cc1ccccc1)C(=O)c1cnc(NCCc2ccc(F)cc2)nc1-c1ccccc1F [compound 118] | < 2 µM | 2 to 10 µM | > 10 µM |
| COc1cccc(N(C(=O)c2cnc(N3CCOCC3)nc2-c2ccccc2F)C2CCC2)c1 [compound 190] | > 10 µM | 2 to 10 µM | > 10 µM |
| CC(C)N(Cc1ccc(C(C)(C)C)cc1)C(=O)c1cnc(N2CCCCC2)nc1-c1ccccc1F [compound 122] | 2 to 10 µM | > 10 µM | > 10 µM |
| CC(C)N(Cc1ccccc1)C(=O)c1cnc(Nc2nc3ccccc3[nH]2)nc1-c1ccccc1F [compound 106] | > 10 µM | > 10 µM | > 10 µM |
| COc1cccc(N(C(=O)c2cnc(N3CCCCC3)nc2-c2ccccc2Cl)C2CCCCC2)c1 [compound 115] | 2 to 10 µM | > 10 µM | > 10 µM |
| COc1cccc(N(C(=O)c2cnc(N3CCOCC3)nc2-c2ccccc2F)C2CCOCC2)c1 [compound 197] | > 10 µM | > 10 µM | > 10 µM |
| CN1CCN(c2ncc(C(=O)N(Cc3ccccc3)C3CCCCC3)c(-c3ccccc3F)n2)CC1 [compound 147] | 2 to 10 µM | > 10 µM | > 10 µM |
| O=C(c1cnc(N2CCOCC2)nc1-c1ccccc1F)N(Cc1ccccc1)C1CCC1 [compound 26] | 2 to 10 µM | 2 to 10 µM | > 10 µM |
| CCC(COC)N(Cc1ccccc1)C(=O)c1cnc(N2CCSCC2)nc1-c1ccccc1F (stereo not drawn) [compound 81] | 2 to 10 µM | 2 to 10 µM | > 10 µM |
| COc1cccc(Nc2ncc(C(=O)N(Cc3ccccc3)C(C)C)c(-c3ccccc3F)n2)c1 [compound 15] | > 10 µM | > 10 µM | > 10 µM |
| Cc1cccc(CN(C(=O)c2cnc(N3CCOCC3)nc2-c2ccccc2F)C2CC2)c1 [compound 163] | 2 to 10 µM | > 10 µM | > 10 µM |
| O=C(NC1CCCCC1)c1cnc(N2CCOCC2)nc1-c1ccccc1F [compound 196] | > 10 µM | > 10 µM | > 10 µM |
| CC(C)N(Cc1cccc(O)c1)C(=O)c1cnc(N2CCOCC2)nc1-c1ccccc1F [compound 5] | 2 to 10 µM | > 10 µM | > 10 µM |
| CN(CCc1ccccc1)C(=O)c1cnc(N2CCOCC2)nc1-c1ccccc1F [compound 199] | > 10 µM | > 10 µM | > 10 µM |
| CN1CCN(c2ncc(C(=O)N(Cc3ccc(C(F)(F)F)cc3)C3CC3)c(-c3ccccc3F)n2)CC1 [compound 126] | 2 to 10 µM | > 10 µM | > 10 µM |
| CCC(COC)N(Cc1ccccc1)C(=O)c1c(C)nc(N2CCOCC2)nc1-c1ccccc1F (stereo not drawn) [compound 49] | > 10 µM | 2 to 10 µM | > 10 µM |
| CC1CCc2ccccc2N1C(=O)c1cnc(N2CCOCC2)nc1-c1ccccc1F (stereo not drawn) [compound 52] | 2 to 10 µM | 2 to 10 µM | > 10 µM |
| CN1CCN(c2ncc(C(=O)N(Cc3ccccc3)C3CCCC3)c(-c3ccccc3F)n2)CC1 [compound 148] | 2 to 10 µM | > 10 µM | > 10 µM |
| COc1ccc(CN(C(=O)c2cnc(N3CCCCC3)nc2-c2ccccc2Cl)C2CC2)cc1 [compound 36] | 2 to 10 µM | 2 to 10 µM | > 10 µM |
| CC(C)N(C(=O)c1cnc(N2CCOCC2)nc1-c1ccccc1F)c1cccc(N(C)C)c1 [compound 111] | > 10 µM | > 10 µM | > 10 µM |
| C=CCN(CC=C)c1ncc(C(=O)N(Cc2ccccc2)C(C)C)c(-c2ccccc2F)n1 [compound 156] | < 2 µM | 2 to 10 µM | 2 to 10 µM |

| Structure (SMILES) | IC50 [1] | IC50 [2] | IC50 [3] |
| --- | --- | --- | --- |
| N=C(N)NCCCNC(=O)c1cnc(N2CCC3CCCCC3C2)nc1-c1ccccc1F (stereo not drawn) [compound 102] | > 10 µM | > 10 µM | > 10 µM |
| CC(=O)NCCNc1ncc(C(=O)N(Cc2ccccc2)C(C)C)c(-c2ccc(C#N)cc2)n1 [compound 319] | > 10 µM | > 10 µM | – |
| CCC1CCC(C)N(C(=O)c2cnc(NCCc3ccc(OC)cc3)nc2-c2ccc(C#N)cc2)C1 (stereo not drawn) [compound 329] | 2 to 10 µM | > 10 µM | – |
| CCC1CCC(C)N(C(=O)c2cnc(NCC3CC3)nc2-c2ccccc2F)C1 (stereo not drawn) [compound 219] | 2 to 10 µM | > 10 µM | – |
| CC(=O)NCCNC(=O)c1cnc(N2CCCC2)nc1-c1ccc(-c2ccccc2)cc1 [compound 281] | > 10 µM | > 10 µM | – |
| COCCCNC(=O)c1cnc(N2CCOCC2)nc1-c1ccc(C#N)cc1 [compound 349] | > 10 µM | > 10 µM | – |
| COCCNc1ncc(C(=O)N(C)C2CCCCC2)c(-c2ccccc2F)n1 [compound 276] | > 10 µM | > 10 µM | – |
| CC(C)CN(C)C(=O)c1cnc(NCc2ccc3c(c2)OCO3)nc1-c1ccc(C#N)cc1 [compound 263] | 2 to 10 µM | > 10 µM | – |
| CC(C)N(Cc1ccccc1)C(=O)c1cnc(N2CCCC2)nc1-c1ccc(C#N)cc1 [compound 211] | > 10 µM | > 10 µM | – |
| CC1CC(C)CN(C(=O)c2cnc(NCCc3cccc(F)c3)nc2-c2ccc(C#N)cc2)C1 (stereo not drawn) [compound 220] | 2 to 10 µM | > 10 µM | – |
| Cc1ccc(CNc2ncc(C(=O)N3CCC(C)CC3)c(-c3ccc(C#N)cc3)n2)o1 [compound 261] | > 10 µM | > 10 µM | – |
| CCN(Cc1ccccc1)C(=O)c1cnc(N2CCOCC2)nc1-c1ccccc1F [compound 350] | > 10 µM | > 10 µM | – |
| CC1CCN(c2ncc(C(=O)N(C)C3CCCCC3)c(-c3ccc(C#N)cc3)n2)CC1 [compound 241] | > 10 µM | > 10 µM | – |
| Cc1cccc(-c2nc(N3CCOCC3)ncc2C(=O)NCc2cccc(C(F)(F)F)c2)c1 [compound 293] | > 10 µM | > 10 µM | – |
| CCCCNC(=O)c1cnc(N2CCOCC2)nc1-c1ccccc1F [compound 233] | > 10 µM | > 10 µM | – |
| CC1CCN(C(=O)c2cnc(N3CCOCC3)nc2-c2ccccc2F)CC1 [compound 337] | > 10 µM | > 10 µM | – |
| CC(=O)N1CCN(c2ncc(C(=O)N3CCC(C)CC3)c(-c3ccc(-c4ccccc4)cc3)n2)CC1 [compound 334] | 2 to 10 µM | > 10 µM | – |
| CCN(C)c1ncc(C(=O)N2CC(C)CC(C)C2)c(-c2ccc(C#N)cc2)n1 (stereo not drawn) [compound 347] | > 10 µM | > 10 µM | – |
| CC1CC(C)CN(C(=O)c2cnc(N3CCOCC3)nc2-c2ccccc2F)C1 (stereo not drawn) [compound 279] | > 10 µM | > 10 µM | – |
| CCN(C)c1ncc(C(=O)NCCOC)c(-c2ccc(C#N)cc2)n1 [compound 314] | > 10 µM | > 10 µM | – |
| COCCCNC(=O)c1cnc(NCC2CC2)nc1-c1cccc(C)c1 [compound 257] | > 10 µM | > 10 µM | – |
| CCN(Cc1ccccc1)C(=O)c1cnc(N2CCCC(C(N)=O)C2)nc1-c1ccc(C#N)cc1 (stereo not drawn) [compound 259] | > 10 µM | > 10 µM | – |
